Source: US12358885B2, “Substituted n-propylamine fused heterocyclic mescaline derivatives” (Enveric Biosciences Canada Inc., priority 2022, dated 2025)
Like-named read-outs stand apart in the source and are kept apart here.

Key:
[1] = biological target: T1, 5-HT1A receptor (Homo sapiens, UniProt P08908); assay: Functional 5-HT1A receptor cAMP assay in CHO-K1/5-HT1A/Gα15 cells; type: cell-based
T1 construct: purchased Perkin Elmer 6110501400UA
T1 sequence (P08908 1-422): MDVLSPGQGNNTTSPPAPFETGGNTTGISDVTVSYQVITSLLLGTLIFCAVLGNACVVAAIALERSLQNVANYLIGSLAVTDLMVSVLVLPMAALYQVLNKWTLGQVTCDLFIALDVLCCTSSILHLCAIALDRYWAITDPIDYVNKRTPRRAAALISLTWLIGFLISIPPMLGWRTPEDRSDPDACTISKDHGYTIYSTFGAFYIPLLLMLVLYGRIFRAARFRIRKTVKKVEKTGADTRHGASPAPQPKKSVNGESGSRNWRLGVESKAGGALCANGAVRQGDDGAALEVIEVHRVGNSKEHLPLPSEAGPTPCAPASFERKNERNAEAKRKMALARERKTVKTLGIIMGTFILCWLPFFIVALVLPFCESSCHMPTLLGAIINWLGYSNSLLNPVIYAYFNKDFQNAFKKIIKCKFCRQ

[2] = biological target: T2, alpha2A receptor (Homo sapiens, UniProt P08913); assay: Eurofins Cerep competition binding assay at alpha2A receptor; conditions: 10 μM test ligand; [3H]RX 821002; recombinant receptor in CHO cells
T2 construct: host or cells: CHO cells (membrane preparation)
T2 sequence (P08913 1-465): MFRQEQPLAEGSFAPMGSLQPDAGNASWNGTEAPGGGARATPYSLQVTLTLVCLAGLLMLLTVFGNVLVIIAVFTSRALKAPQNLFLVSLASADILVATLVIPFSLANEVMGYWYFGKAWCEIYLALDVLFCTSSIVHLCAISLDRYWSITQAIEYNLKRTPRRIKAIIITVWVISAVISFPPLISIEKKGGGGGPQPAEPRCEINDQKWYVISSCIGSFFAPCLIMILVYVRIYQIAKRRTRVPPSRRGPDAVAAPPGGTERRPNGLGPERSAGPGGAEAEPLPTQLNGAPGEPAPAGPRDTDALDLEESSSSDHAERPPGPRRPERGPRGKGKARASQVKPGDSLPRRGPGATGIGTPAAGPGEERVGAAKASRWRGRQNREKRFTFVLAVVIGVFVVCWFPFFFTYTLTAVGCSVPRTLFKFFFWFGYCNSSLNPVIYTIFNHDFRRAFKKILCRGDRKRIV

[3] = biological target: T3, D3 receptor (Homo sapiens, UniProt P35462); assay: Eurofins Cerep competition binding assay at D3 receptor; conditions: 10 μM test ligand, [3H]methylspiperone, recombinant receptor in CHO cells; for inhibition at 10 µM: read-out: D3, percent of control-specific binding
T3 construct: host or cells: CHO cells (membrane preparation)

[4] = biological target: T1, 5-HT1A receptor; assay: 5-HT1A receptor radioligand competition assay (SPA, 8-hydroxy-DPAT [3H]); type: binding; conditions: 0.5 nM hot 8-hydroxy-DPAT, membranes containing 5-HT1A
[5] = biological target: T4, 5-HT2A receptor (Homo sapiens, UniProt P28223); assay: biochemical; type: binding; conditions: for inhibition at 10 µM: read-out: HT2A, percent of control-specific binding
T4 construct: host or cells: HEK-293 cells (membrane preparation)

[6] = biological target: T5, 5-HT2B receptor (Homo sapiens, UniProt P41595); assay: Eurofins Cerep competition binding assay at 5-HT2B receptor; conditions: 10 μM test ligand, [3H]mesulergine, recombinant receptor in CHO cells
T5 construct: host or cells: CHO cells (membrane preparation)

[7] = biological target: T6, 5-HT7 receptor (Homo sapiens, UniProt P34969); assay: Eurofins Cerep competition binding assay at 5-HT7 receptor; conditions: 10 μM test ligand, [3H]LSD, recombinant receptor in HEK-293 cells
T6 construct: host or cells: HEK-293 cells (membrane preparation)

[8] = biological target: T7, serotonin transporter (SERT) (Homo sapiens, UniProt P31645); assay: biochemical; type: binding
T7 construct: host or cells: CHO cells (membrane preparation)

[9] = biological target: T4, 5-HT2A receptor; assay: biochemical; type: binding; conditions: 1 nM [3H]ketanserin; membranes containing 5-HT2A; SPA
[10] = biological target: T8, norepinephrine transporter (NET) (Homo sapiens, UniProt P23975); assay: Eurofins Cerep competition binding assay at norepinephrine transporter
T8 construct: host or cells: CHO cells (membrane preparation)

[11] = biological target: T9, dopamine transporter (DAT) (Homo sapiens, UniProt Q01959); assay: Eurofins Cerep competition binding assay at dopamine transporter
T9 construct: host or cells: CHO cells (membrane preparation)

[12] = biological target: T10, MT1 receptor (Homo sapiens, UniProt P48039); assay: Eurofins Cerep competition binding assay at MT1 receptor
T10 construct: host or cells: CHO cells (membrane preparation)

[13] = biological target: T1, 5-HT1A receptor; assay: Eurofins Cerep competition binding assay at 5-HT1A receptor; conditions: 10 μM test ligand, [3H]8-OH-DPAT, recombinant receptor in HEK-293 cells
[14] = biological target: T11, 5-HT2C receptor (Homo sapiens, UniProt P28335); assay: Eurofins Cerep competition binding assay at 5-HT2C receptor; conditions: 10 μM test ligand; [125I](±)DOI; recombinant receptor in HEK-293 cells; read-out: HT2C, percent of control-specific binding
T11 construct: host or cells: HEK-293 cells (membrane preparation)
T11 sequence (P28335 33-458): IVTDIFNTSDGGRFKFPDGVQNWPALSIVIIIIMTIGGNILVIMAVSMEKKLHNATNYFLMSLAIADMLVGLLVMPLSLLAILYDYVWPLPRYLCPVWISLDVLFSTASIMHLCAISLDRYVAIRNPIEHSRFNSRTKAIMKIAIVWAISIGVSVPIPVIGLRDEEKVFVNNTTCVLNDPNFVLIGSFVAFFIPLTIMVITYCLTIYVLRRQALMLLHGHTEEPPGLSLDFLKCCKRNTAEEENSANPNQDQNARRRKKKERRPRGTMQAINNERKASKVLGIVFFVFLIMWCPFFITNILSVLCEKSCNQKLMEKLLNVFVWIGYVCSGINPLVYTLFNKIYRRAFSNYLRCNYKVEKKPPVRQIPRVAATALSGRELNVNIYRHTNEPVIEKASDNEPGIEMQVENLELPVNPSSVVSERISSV

[15] = 10 μM test molecule, [125I](±)DOI, recombinant receptor in HEK-293 cells

T3 sequence (P35462 whole entry): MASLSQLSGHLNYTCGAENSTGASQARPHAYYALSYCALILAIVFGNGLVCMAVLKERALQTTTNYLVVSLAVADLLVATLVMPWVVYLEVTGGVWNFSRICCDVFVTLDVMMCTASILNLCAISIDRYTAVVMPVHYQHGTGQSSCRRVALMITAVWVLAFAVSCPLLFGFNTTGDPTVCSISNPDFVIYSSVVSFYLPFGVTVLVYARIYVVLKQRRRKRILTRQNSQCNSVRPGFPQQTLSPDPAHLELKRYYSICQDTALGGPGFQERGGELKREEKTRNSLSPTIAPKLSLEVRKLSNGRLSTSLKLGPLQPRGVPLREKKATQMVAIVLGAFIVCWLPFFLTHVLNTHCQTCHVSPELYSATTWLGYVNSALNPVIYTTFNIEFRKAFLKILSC
T4 sequence (P28223 whole entry): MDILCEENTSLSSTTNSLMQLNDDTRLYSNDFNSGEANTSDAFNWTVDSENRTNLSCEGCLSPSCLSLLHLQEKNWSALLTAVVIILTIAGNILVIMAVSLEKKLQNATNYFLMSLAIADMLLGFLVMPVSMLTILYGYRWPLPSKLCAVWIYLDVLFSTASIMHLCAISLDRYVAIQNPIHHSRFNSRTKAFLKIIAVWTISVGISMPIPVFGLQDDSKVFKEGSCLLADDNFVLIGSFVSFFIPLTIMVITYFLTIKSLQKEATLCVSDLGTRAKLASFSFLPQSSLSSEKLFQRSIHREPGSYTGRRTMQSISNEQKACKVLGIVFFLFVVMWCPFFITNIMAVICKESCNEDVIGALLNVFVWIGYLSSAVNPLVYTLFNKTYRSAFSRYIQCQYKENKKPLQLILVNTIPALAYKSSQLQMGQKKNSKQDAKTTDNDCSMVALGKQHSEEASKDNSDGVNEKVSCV
T10 sequence (P48039 whole entry): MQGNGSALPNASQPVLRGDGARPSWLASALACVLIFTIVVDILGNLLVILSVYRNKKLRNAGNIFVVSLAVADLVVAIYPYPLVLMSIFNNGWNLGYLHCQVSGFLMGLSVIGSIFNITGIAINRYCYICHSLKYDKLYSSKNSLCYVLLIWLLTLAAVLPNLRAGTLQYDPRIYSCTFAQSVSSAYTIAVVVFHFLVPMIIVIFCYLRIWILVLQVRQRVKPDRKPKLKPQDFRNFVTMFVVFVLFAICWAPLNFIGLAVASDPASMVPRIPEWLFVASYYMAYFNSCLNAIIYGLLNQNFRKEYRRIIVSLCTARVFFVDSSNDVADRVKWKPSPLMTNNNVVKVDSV
T8 sequence (P23975 whole entry): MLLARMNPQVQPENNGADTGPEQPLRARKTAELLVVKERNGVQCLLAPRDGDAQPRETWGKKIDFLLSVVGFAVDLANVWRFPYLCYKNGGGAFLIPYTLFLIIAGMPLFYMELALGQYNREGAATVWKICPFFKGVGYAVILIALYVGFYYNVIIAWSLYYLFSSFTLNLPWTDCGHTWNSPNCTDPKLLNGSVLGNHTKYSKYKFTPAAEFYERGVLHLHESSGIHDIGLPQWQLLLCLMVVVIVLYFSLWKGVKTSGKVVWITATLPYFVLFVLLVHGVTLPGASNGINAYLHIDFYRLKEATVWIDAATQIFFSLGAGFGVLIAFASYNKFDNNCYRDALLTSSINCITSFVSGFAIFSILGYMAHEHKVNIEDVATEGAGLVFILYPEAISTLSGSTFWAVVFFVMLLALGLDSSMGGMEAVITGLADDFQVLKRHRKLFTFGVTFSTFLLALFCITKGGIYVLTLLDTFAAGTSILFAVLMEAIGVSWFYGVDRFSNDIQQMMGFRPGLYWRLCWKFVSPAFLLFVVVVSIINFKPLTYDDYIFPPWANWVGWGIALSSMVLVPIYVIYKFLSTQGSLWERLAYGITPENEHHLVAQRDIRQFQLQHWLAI
T9 sequence (Q01959 whole entry): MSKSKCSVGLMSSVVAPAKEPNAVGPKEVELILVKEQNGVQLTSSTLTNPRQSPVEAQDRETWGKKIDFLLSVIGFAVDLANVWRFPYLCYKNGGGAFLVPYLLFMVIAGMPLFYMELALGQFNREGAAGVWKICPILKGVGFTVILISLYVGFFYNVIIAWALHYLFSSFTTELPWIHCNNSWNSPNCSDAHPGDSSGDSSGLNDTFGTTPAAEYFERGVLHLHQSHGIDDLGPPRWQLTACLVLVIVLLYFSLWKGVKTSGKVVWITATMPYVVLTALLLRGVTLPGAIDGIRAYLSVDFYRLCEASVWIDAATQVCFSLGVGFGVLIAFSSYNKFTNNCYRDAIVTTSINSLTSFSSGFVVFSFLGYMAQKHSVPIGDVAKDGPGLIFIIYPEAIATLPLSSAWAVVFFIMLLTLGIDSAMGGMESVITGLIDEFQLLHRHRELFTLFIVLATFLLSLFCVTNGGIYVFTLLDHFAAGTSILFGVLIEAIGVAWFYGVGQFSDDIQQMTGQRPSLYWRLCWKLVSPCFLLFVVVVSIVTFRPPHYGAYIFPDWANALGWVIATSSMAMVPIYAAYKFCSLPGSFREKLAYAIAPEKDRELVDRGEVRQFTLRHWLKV
T5 sequence (P41595 whole entry): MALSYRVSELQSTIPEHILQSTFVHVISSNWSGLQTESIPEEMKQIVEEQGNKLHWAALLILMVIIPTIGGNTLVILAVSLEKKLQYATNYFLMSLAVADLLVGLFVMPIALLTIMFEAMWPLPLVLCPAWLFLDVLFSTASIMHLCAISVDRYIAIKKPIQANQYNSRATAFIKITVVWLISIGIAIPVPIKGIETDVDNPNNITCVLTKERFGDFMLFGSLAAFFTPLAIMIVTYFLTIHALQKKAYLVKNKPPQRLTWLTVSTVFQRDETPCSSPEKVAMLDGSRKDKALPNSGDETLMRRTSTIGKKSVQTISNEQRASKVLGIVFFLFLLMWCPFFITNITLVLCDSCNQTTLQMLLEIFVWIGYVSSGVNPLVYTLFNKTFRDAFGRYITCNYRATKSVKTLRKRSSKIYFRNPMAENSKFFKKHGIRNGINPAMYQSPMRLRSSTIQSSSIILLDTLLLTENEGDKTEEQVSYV
T7 sequence (P31645 whole entry): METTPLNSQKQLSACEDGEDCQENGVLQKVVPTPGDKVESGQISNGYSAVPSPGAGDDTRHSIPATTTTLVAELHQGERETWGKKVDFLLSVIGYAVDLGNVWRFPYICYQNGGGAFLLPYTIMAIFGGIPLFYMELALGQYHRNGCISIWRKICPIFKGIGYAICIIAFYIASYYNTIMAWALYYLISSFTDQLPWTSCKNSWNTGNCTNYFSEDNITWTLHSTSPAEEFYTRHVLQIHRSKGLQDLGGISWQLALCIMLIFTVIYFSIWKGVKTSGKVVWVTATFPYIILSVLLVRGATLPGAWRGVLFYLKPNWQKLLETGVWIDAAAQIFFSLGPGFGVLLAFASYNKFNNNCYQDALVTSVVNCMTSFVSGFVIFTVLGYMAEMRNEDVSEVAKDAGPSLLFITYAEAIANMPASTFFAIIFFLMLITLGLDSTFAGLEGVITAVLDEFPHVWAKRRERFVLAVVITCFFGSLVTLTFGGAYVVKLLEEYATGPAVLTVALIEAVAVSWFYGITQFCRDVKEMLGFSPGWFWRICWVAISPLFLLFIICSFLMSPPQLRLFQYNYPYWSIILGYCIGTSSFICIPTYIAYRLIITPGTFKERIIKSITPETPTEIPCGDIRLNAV
T6 sequence (P34969 whole entry): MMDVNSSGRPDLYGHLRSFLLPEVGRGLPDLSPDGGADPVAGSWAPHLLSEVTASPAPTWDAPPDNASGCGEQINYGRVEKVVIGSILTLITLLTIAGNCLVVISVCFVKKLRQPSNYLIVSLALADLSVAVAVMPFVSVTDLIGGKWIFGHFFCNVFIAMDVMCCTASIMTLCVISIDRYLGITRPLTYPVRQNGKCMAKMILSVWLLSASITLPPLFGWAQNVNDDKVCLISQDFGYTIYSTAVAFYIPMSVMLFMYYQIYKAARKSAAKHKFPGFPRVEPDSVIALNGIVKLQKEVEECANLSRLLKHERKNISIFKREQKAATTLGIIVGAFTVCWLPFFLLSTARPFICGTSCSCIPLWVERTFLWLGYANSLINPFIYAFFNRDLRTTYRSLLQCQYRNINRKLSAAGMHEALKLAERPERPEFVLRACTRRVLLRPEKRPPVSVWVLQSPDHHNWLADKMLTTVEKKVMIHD

Row | SMILES | α-2A, percent of control-specific binding [2] | inhibition at 10 µM [3] | Ki [4] | inhibition at 10 µM [5, 15] | also measured
1 | Brc1cc2c(cc1CCC1=NCCO1)OCO2 [G(V)] | – | – | – | – | EC50 [1]: 130 µM
2 | CC(NC(C)(C)C)C(=O)c1cccc(Cl)c1 (centres unmarked) [Bupropion] | 2% | 3% | – | – | –
3 | COc1cc2c(cc1CCC(=O)N1CCCC1)OCO2 [F(V)] | – | – | 364 µM | – | EC50 [1]: 10 µM
4 | N#Cc1ccc2[nH]cc(CCCCN3CCN(c4ccc5oc(C(N)=O)cc5c4)CC3)c2c1 [Vilazodone] | 65% | 99% | – | 94% | –
5 | COc1ccc2[nH]cc(CCNC(C)=O)c2c1 [Melatonin] | −7% | 2% | – | – | –
6 | N[C@@H](Cc1c[nH]c2ccccc12)C(=O)O [tryptophan] | −4% | -23% | – | -1% | –
7 | COc1cc(CCN)c(OC)cc1Br [2C-B, reference compound] | 88% | – | 0.2 µM | – | HT2B, percent of control-specific binding [6]: 99%; HT7, percent of control-specific binding [7]: 88%; D3, percent of control-specific binding [3]: 43%; SERT, percent of control-specific binding ([8]; 10 µM): 42%; Ki [9]: 0.414 µM; EC50 ([1]; reduction of cAMP in cells stimulated with 4 μM forskolin, CHO-K1/5-HT1A/Gα15, read-out: 5-HT1A, EC50): 5.95 µM; NET, percent of control-specific binding ([10]; 10 μM test ligand, [3H]nisoxetine, recombinant transporter in CHO cells): 13%; DAT, percent of control-specific binding ([11]; 10 μM test ligand, [3H]BTCP, recombinant transporter in CHO cells): 5%; MT1, percent of control-specific binding ([12]; 10 μM test ligand, [125I]2-iodomelatonin, recombinant receptor in CHO cells): 86%; HT2A, percent of control-specific binding [5, 15]: 98%; HT1A, percent of control-specific binding [13]: 96%
8 | CCN(CC)CCCc1ccc2c(c1)OCO2 [C(I)] | – | – | 2.9 µM | – | –
9 | Cc1ccc(Sc2ccccc2N2CCNCC2)c(C)c1 [vortioxetine] | 62% | 88% | – | 90% | –
10 | CNCC[C@H](Oc1cccc2ccccc12)c1cccs1 [Duloxetine] | 54% | 66% | – | – | inhibition at 10 µM [5]: 95%
11 | O=c1n(CCCN2CCN(c3cccc(Cl)c3)CC2)nc2ccccn12 [Trazodone] | 91% | 89% | – | – | –
12 | c1cc2c(cc1CCCN1CCCC1)OCO2 [C(III)] | 36% | 22% | 2.33 µM | 37% | inhibition at 10 µM ([6]; read-out: HT2B, percent of control-specific binding): 47%; inhibition at 10 µM ([7]; read-out: HT7, percent of control-specific binding): 15%; inhibition at 10 µM [14]: 33%; inhibition at 10 µM ([8]; read-out: SERT, percent of control-specific binding): 19%; inhibition at 10 µM ([10]; read-out: NET, percent of control-specific binding): 3%; inhibition at 10 µM ([11]; read-out: DAT, percent of control-specific binding): 27%; inhibition at 10 µM ([12]; read-out: MT1, percent of control-specific binding): 3%; inhibition at 10 µM ([13]; read-out: HT1A, percent of control-specific binding): 72%
